Reference: ChEMBL document CHEMBL5705896 (ACS Chem Biol, 2013)

How the values were obtained:
[1] = biological target: T1, Histone-lysine N-methyltransferase EZH2 (Homo sapiens, UniProt Q15910)
Description: Competitive inhibition of EZH2 methyltransferase activity (unknown origin) in PRC2 complex assessed as inhibition constant in presence of cofactor SAM by Lineweaver-Burk plot analysis

[2] = biological target: Alpha-1B adrenergic receptor (Homo sapiens) (UniProt P35368); assay: Inhibition of Alpha1B receptor (unknown origin) at 10 uM by radioligand binding assay relative to control
[3] = biological target: AMP-activated protein kinase (AMPK) alpha-1/beta-1/gamma-1 (Homo sapiens) (UniProt P54619+Q9Y478+Q13131); assay: Inhibition of full length human N-terminal GST tagged AMPK alpha1(1 to 550 end residues)/beta1 (1 to 270 end residues)/gamma1 (1 to 331 end residues) expressed in baculovirus expression system using SAMS peptide as substrate at 10 uM by mobility shift assay relative to control
[4] = biological target: Beta-3 adrenergic receptor (Homo sapiens) (UniProt P13945); assay: Inhibition of Beta3receptor (unknown origin) at 10 uM by radioligand binding assay relative to control
[5] = biological target: Muscarinic acetylcholine receptor M4 (Homo sapiens) (UniProt P08173); assay: Inhibition of M4 receptor (unknown origin) at 10 uM by radioligand binding assay relative to control
[6] = biological target: DNA (cytosine-5)-methyltransferase 1 (Homo sapiens, UniProt P26358); assay: Inhibition of DNMT1 (unknown origin) using hemimethylated dsDNA as substrate incubated for 1 hr by scintillation proximity assay
[7] = biological target: Rho-associated protein kinase 1 (Homo sapiens) (UniProt Q13464); assay: Inhibition of human catalytic domain N-terminal GST tagged ROCK1 (1 to 477 residues) expressed in baculovirus expression system using LIMKtide as substrate at 10 uM by mobility shift assay relative to control
[8] = biological target: Vascular endothelial growth factor receptor 2 (Homo sapiens) (UniProt P35968); assay: Inhibition of human cytoplasmic domain N-terminal GST tagged KDR (790 to 1356 end residues) expressed in baculovirus expression system using CSKtide as substrate at 10 uM by mobility shift assay relative to control
[9] = Toxicity in Swiss albino mouse assessed as drug tolerance at 15 to 150 mg/kg administered as single ip dose measured upto 24 hrs; format: organism-based; conditions: in vivo, dose 15-150 mg/kg
[10] = biological target: Muscarinic acetylcholine receptor M3 (Homo sapiens) (UniProt P20309); assay: Inhibition of M3 receptor (unknown origin) at 10 uM by radioligand binding assay relative to control
[11] = biological target: Histone-lysine N-methyltransferase EHMT1 (Homo sapiens, UniProt Q9H9B1); assay: Inhibition of EHMT1 (unknown origin) using [3H-SAM] as substrate incubated for 1 hr by scintillation proximity assay
[12] = biological target: Muscarinic acetylcholine receptor M2 (Homo sapiens) (UniProt P08172); assay: Inhibition of M2 receptor (unknown origin) at 10 uM by radioligand binding assay relative to control
[13] = biological target: T1, Histone-lysine N-methyltransferase EZH2; remark: listed apart in the source
Description: Inhibition of human EZH2 in human MCF-10A cells assessed as reduction in H3K27me3 levels incubated for 72 hrs by In-cell western assay

[14] = biological target: Serine/threonine-protein kinase 4 (Homo sapiens) (UniProt Q13043); assay: Inhibition of full length human N-terminal GST tagged MST1 (1 to 487 end residues) expressed in baculovirus expression system using IRS1 as substrate at 10 uM by mobility shift assay relative to control
[15] = biological target: Mitogen-activated protein kinase 9 (Homo sapiens) (UniProt P45984); assay: Inhibition of human catalytic domain N-terminal GST tagged JNK2 (1 to 364 residues) expressed in Escherichia coli expression system using modified Erktide as substrate at 10 uM by mobility shift assay relative to control
[16] = biological target: MAP kinase-activated protein kinase 2 (Homo sapiens) (UniProt P49137); assay: Inhibition of full length human N-terminal GST tagged MAPKAPK2 1 to 400 end residues) expressed in baculovirus expression system using GS as peptide at 10 uM by mobility shift assay relative to control
Histamine H3 receptor = Histamine H3 receptor (Homo sapiens, UniProt Q9Y5N1)
Description: Binding affinity to H3 receptor (unknown origin) assessed as inhibition constant

[17] = biological target: Tyrosine-protein kinase ITK/TSK (Homo sapiens) (UniProt Q08881); assay: Inhibition of human cytoplasmic domain N-terminal GST tagged ITK (2 to 620 end residues) expressed in baculovirus expression system using Srctide as substrate at 10 uM by mobility shift assay relative to control
[18] = Toxicity in Swiss albino mouse assessed as adverse effect at 15 to 150 mg/kg administered as single ip dose measured upto 24 hrs; format: organism-based; conditions: in vivo, dose 15-150 mg/kg
[19] = biological target: D(1A) dopamine receptor (Homo sapiens) (UniProt P21728); assay: Inhibition of dopamine D1 receptor (unknown origin) at 10 uM by radioligand binding assay relative to control
[20] = biological target: D(3) dopamine receptor (Homo sapiens) (UniProt P35462); assay: Inhibition of dopamine D3 receptor (unknown origin) at 10 uM by radioligand binding assay relative to control
[21] = biological target: Tyrosine-protein kinase Lck (Homo sapiens) (UniProt P06239); assay: Inhibition of full length human N-terminal GST tagged LCK (1 to 509 end residues) expressed in baculovirus expression system using Srctide as substrate at 10 uM by mobility shift assay relative to control
[22] = biological target: 5-hydroxytryptamine receptor 2A (Homo sapiens) (UniProt P28223); assay: Inhibition of 5-HT2A receptor (unknown origin) at 10 uM by radioligand binding assay relative to control
[23] = biological target: Tyrosine-protein kinase SYK (Homo sapiens) (UniProt P43405); assay: Inhibition of full length human N-terminal GST tagged SYK (1 to […] end residues) expressed in baculovirus expression system using Blk/lyntide as substrate at 10 uM by mobility shift assay relative to control
[24] = biological target: Epidermal growth factor receptor (Homo sapiens) (UniProt P00533); assay: Inhibition of human cytoplasmic domain N-terminal GST tagged EGFR (669 to 1210 end residues) expressed in baculovirus expression system using Srctide as substrate at 10 uM by mobility shift assay relative to control
[25] = biological target: Beta-2 adrenergic receptor (Homo sapiens) (UniProt P07550); assay: Inhibition of Beta2 receptor (unknown origin) at 10 uM by radioligand binding assay relative to control
[26] = biological target: Receptor-type tyrosine-protein kinase FLT3 (Homo sapiens) (UniProt P36888); assay: Inhibition of human cytoplasmic domain N-terminal GST tagged FLT3 (564 to 993 end residues) expressed in baculovirus expression system using Srctide as substrate at 10 uM by mobility shift assay relative to control
[27] = biological target: Protein kinase C alpha type (Homo sapiens) (UniProt P17252); assay: Inhibition of full length human N-terminal GST tagged PKC alpha (1 to 672 end residues) expressed in baculovirus expression system using PKC as peptide at 10 uM by mobility shift assay relative to control

T1 sequence (Q15910 whole entry): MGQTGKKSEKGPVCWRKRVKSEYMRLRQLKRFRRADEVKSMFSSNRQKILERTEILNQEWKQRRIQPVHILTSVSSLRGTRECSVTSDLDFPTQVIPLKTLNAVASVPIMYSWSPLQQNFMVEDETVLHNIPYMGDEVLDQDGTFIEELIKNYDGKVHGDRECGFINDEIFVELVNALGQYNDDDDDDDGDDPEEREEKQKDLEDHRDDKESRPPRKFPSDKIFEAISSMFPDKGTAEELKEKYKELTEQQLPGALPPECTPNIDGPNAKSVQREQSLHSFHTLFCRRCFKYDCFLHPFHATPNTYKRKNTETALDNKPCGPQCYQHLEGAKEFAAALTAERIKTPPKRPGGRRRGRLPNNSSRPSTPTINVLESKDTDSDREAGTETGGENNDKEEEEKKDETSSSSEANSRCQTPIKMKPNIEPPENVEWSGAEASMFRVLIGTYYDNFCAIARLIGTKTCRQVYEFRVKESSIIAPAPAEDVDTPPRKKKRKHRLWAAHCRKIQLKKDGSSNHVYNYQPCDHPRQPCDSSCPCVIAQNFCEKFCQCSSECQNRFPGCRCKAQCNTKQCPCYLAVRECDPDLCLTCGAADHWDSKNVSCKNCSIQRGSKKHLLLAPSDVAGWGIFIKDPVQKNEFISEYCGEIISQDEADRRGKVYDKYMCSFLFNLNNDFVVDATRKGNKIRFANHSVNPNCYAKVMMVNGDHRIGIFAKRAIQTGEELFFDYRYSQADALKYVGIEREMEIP
Chain of DNA (cytosine-5)-methyltransferase 1 (P26358 whole entry, the tested form may be a part): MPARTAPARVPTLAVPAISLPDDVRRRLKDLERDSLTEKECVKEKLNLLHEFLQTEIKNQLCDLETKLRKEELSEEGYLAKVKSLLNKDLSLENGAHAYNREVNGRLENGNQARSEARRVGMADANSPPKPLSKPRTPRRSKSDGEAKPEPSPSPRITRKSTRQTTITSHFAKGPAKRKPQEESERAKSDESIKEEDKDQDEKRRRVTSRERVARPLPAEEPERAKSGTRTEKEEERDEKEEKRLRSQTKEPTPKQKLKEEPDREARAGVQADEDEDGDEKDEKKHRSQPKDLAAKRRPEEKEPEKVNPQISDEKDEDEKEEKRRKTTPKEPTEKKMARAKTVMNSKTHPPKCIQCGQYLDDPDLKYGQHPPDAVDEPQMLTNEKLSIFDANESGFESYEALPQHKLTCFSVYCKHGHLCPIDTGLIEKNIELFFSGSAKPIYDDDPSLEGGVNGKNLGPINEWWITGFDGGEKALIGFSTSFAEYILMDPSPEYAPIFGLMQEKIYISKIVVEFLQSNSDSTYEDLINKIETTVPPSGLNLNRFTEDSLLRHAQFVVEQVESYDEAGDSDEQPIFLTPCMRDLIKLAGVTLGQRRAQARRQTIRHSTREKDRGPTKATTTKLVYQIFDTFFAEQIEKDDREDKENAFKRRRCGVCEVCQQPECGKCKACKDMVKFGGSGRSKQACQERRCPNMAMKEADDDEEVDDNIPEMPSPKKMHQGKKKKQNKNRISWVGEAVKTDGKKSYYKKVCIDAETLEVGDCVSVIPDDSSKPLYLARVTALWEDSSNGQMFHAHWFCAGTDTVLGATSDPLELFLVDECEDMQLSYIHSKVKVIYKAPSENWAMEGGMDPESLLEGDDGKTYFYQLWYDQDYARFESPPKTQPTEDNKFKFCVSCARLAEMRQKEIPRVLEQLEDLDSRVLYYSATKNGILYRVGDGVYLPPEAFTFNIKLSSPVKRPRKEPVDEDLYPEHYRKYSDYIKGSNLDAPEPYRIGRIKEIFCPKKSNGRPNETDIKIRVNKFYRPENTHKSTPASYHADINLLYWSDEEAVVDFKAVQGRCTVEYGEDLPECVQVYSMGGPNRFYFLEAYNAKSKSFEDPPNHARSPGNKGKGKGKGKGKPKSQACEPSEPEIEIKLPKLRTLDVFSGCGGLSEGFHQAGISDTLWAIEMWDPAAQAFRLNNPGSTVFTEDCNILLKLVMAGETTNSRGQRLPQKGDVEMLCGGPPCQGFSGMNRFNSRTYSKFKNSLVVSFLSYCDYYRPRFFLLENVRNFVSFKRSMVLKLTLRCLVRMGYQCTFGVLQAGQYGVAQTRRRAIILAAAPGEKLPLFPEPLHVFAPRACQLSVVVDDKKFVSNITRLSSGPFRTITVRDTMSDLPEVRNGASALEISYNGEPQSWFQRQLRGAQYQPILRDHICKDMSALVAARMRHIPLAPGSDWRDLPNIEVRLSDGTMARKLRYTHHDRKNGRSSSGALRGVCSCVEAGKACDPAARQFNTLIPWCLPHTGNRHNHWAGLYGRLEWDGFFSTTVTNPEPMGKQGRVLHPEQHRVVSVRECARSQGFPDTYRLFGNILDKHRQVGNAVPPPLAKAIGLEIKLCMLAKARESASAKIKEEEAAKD
Chain of D(1A) dopamine receptor (Homo sapiens) (P21728 whole entry): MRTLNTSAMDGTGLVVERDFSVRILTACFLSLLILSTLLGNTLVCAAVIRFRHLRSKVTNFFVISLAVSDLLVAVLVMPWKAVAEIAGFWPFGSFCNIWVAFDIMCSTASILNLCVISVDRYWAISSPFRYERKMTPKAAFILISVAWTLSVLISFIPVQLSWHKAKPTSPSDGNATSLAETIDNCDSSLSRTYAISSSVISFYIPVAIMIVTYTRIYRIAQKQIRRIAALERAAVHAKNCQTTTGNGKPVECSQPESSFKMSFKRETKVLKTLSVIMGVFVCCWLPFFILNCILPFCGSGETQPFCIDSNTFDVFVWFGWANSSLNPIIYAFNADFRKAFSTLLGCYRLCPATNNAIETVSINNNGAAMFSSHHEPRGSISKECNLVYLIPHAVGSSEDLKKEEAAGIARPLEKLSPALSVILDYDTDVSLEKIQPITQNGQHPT
Chain of Histamine H3 receptor (Q9Y5N1 whole entry, the tested form may be a part): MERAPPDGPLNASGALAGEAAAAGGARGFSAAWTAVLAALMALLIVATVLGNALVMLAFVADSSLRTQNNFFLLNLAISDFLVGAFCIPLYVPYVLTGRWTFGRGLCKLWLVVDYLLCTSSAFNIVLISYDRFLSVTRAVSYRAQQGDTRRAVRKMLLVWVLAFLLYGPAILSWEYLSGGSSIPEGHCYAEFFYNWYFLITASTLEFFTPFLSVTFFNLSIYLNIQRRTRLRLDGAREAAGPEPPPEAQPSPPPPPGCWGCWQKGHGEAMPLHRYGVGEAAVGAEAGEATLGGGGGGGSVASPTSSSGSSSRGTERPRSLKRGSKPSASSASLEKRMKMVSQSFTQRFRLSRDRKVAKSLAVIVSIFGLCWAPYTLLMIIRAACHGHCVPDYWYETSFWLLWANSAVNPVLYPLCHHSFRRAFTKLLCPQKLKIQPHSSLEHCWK
Chain of AMP-activated protein kinase (AMPK) alpha-1/beta-1/gamma-1 (Homo sapiens) (P54619 whole entry): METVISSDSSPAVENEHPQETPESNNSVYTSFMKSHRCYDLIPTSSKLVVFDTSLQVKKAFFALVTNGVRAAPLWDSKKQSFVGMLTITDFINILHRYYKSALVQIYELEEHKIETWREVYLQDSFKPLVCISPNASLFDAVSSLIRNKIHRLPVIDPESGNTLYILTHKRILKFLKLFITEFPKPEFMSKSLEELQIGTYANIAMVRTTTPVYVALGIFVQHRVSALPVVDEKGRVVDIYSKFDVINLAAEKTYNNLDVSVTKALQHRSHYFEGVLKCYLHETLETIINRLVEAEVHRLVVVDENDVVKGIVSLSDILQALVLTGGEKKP
Chain of AMP-activated protein kinase (AMPK) alpha-1/beta-1/gamma-1 (Homo sapiens) (Q13131 whole entry partner): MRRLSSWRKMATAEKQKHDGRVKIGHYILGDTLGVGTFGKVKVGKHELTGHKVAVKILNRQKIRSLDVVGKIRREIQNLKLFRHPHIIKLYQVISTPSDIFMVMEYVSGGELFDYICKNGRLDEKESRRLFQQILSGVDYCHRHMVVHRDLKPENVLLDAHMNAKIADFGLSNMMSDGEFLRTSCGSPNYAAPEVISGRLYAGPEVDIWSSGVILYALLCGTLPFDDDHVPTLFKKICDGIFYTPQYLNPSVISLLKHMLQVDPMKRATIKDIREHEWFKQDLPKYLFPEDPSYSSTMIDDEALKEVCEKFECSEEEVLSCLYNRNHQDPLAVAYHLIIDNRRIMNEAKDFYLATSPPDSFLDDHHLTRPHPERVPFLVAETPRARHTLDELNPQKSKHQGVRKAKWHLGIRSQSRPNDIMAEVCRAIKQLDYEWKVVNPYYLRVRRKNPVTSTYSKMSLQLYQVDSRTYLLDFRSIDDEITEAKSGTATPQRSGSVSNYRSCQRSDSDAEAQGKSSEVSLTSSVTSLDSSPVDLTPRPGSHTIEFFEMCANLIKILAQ
Chain of AMP-activated protein kinase (AMPK) alpha-1/beta-1/gamma-1 (Homo sapiens) (Q9Y478 2-270 partner limits assumed): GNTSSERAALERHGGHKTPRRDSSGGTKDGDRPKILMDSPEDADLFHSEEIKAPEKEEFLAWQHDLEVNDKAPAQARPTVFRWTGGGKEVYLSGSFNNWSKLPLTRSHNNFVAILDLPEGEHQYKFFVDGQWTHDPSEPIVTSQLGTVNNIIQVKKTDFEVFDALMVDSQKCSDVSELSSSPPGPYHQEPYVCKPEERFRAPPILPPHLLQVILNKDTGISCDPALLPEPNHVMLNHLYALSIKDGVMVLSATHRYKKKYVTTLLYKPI
Chain of D(3) dopamine receptor (Homo sapiens) (P35462 whole entry): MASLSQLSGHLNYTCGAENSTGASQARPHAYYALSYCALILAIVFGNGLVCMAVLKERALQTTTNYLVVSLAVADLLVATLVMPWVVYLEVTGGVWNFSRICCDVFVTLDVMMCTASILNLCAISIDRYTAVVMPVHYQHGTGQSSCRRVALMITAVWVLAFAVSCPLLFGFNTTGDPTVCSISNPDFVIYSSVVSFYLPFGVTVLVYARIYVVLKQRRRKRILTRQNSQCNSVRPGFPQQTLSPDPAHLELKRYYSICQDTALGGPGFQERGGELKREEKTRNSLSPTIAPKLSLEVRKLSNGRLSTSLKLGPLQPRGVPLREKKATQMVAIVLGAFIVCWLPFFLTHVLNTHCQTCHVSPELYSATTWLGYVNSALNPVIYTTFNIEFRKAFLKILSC

CCCc1cc(C)[nH]c(=O)c1CNC(=O)c1cc(-c2ccc(N3CCN(C(C)C)CC3)nc2)cc2c1cnn2C(C)C
Ki [1]: 4.6 nM | inhibition [2]: 6% | inhibition [3]: -3% | inhibition [4]: 10% | inhibition [5]: 21% | IC50 [6]: > 100000 nM | inhibition [7]: 5% | inhibition [8]: -2% | Activity [9]: Non-Toxic | inhibition [10]: 10% | IC50 [11]: > 100000 nM | inhibition [12]: 41% | IC50 [13]: 124 nM | inhibition [14]: -5% | inhibition [15]: 5% | inhibition [16]: 4% | Ki (Histamine H3 receptor): 300 nM | inhibition [17]: -2% | Activity [18]: Non-Toxic | inhibition [19]: 13% | inhibition [20]: 28% | inhibition [21]: 0% | inhibition [22]: 39% | inhibition [23]: -6% | inhibition [24]: -3% | inhibition [25]: 14% | inhibition [26]: 16% | inhibition [27]: -4%
